Reference: patent US11702442B2, “Cyclic dinucleotide compounds as sting agonists” (The Regents of the University of California, priority 2019, dated 2023)
Entries after “also recorded” stand apart in the source; their conditions may differ.

How the values were obtained:
[1] = target: T1, rocR (Pseudomonas aeruginosa, UniProt Q9HX69); assay: rocR-mediated CDN hydrolysis monitored by HPLC; type: biochemical, P. aeruginosa; details: for order of gradually reduced rocR hydrolysis rate: FIG. 10F; for k2 / k3 / k1 / k2 (cleavage reaction) / time to complete cleavage by rocR: 100 nM rocR, 37° C.; for k2 / k3: Table 3; for k1: enzyme/substrate association
T1 construct: made in house; host or cells: Escherichia coli BL21(DE3)
T1 sequence (Q9HX69 whole entry): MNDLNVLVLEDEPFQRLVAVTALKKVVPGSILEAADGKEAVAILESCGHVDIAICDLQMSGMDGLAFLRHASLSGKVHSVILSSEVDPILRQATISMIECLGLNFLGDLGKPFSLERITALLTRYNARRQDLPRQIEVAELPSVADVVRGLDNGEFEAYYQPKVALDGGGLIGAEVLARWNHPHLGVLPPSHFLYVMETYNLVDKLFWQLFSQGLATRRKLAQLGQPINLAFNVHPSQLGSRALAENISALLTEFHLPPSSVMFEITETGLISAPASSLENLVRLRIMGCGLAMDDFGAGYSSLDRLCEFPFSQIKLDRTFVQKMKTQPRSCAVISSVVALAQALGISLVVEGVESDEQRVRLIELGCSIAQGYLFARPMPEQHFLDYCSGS
Excerpt: [1a,27] rocR is a PDE that contains an EAL domain and specifically recognizes and cleaves c-di-GMP into the linear dinucleotide pGpG. […] [28a,29]
RocR is reported to follow Michaelis-Menten kinetics. [27c,28a] Scheme 2a was therefore used to analyze the reaction kinetics, where k1 and k−1 describe the enzyme/substrate association and dissociation, respectively, while k2 reflects the cleavage reaction. Equations (10)-(13) were thus used to extract the rate constants. When “asymmetrical” mixed c-di-GMP analogues are treated with rocR, the enzyme may, in principle, recognize and cleave either phosphodiester bonds, producing pN1pN2 and pN2pN1. Assuming the two products result from different binding orientation of the heterodimeric CDNs, Scheme 2b is therefore introduced to model the cleavage reactions, where k1, k−1 and k2 reflect the association/dissociation and cleavage of the heterodimeric CDN in one orientation, respectively, and k3, k−3 and k4 reflect the other. Equations (14)-(19) were used to extract the rate constants.
Equations(10)-(19) d[S]/dt=−k1[E][S]+k−1[ES] (10) d[E]/dt=−k1[E][S]+k−1[ES]+k2[ES] (11) d[P]/dt=k2[ES] (12) d[ES]/dt=k1[E][S]−k−1[ES]−k2[ES] (13) d[S]/dt=−k1[E][S]+k−1[ES1]−k3[E][S]+k−3[ES2] (14) d[P1]/dt=k2[ES1] (15) d[P2]/dt=k4[ES2] (16) d[E]/dt=−(k1+k3)[E][S]+(k−1+k2)[ES1]+[…][ES2]] (17) d[ES1]/dt=k1[E][S]−k−1[ES1]−k2[ES1] (18) d[ES2]/dt=k3[E][S]−k−3[ES2]−k4[ES2] (19)
CDN hydrolysis with rocR. […] of CDN was incubated with 100 nM of rocR in a buffer containing 100 mM Tris-HCI, pH 8, 20 mM KCI, 25 mM MgCl2 at 37° C. Aliquots of the reaction mixture were taken out at designated time points and quenched with 100 mM CaCl2. All aliquots were filtered before subjected to reverse-phase HPLC analysis. The reaction mixture was separated by Sepax Bio C-18 column (250×10 mm, 5 µm particle size) with a gradient of 0.1-15% of 10 mM NH4OAc, pH7 in Me0H in 12 minutes at 25° C. or 50° C. (only for reactions of c-GtzGMP and c-di-tzGMP) on an Agilent 1200 series HPLC system (Agilent Technologies).
Data Analysis and curve fitting. […] The relative concentrations were plotted against time.

[2] = system: STING pathway; assay: IRF3 phosphorylation in RAW 264.7 cells (immunoblot pIRF3 vs β-actin); type: cell-based, murine; details: 2 h after transfection; for IRF3 phosphorylation (pIRF3), concentration dependence: RAW 264.7, 1, 5 and 10 μM CDN
Method: FIGS. 2A-2B show IRF3 phosphorylation induced by c-di-GMP and its analogues. […] 1, 5 and 10 μM of each CDN was used to transfect RAW 264.7 cells. Cells were lysed with NP-40 lysis buffer 2 h post transfection, 20 μg of total protein was loaded on SDS-polyacrylamide gel. Proteins were transferred to PVDF membrane after gel electrophoresis, and immunoblotted against pIRF3 and β-actin. […] The y-axis indicates relative intensity of pIRF3 compare to β-actin.
To analyze the immunostimulatory effects of all synthetic CDNs in greater detail, RAW 264.7 cells were treated with various concentrations of c-di-GMP, c-di-tzGMP, c-di-thGMP, c-GthGMP and c-GtzGMP and the phosphorylation of IRF3 to pIRF3 was evaluated. CDNs were thus transfected into RAW 264.7 murine cells with digitonin as described in previous studies.[7b,16] Cells were then lysed with NP-40 buffer 2 h after transfection, and total protein was collected for immunoblotting against phosphorylated IRF3 (pIRF3) and β-actin. […] Two other biological replicates produced similar trends (See FIG. S2 in Yi et al, ChemBioChem, Volume 21 (2020)).
Immunoblotting. RAW 264.7 cells were plated on 24-well plates (5×10^5 cells per well) and incubate at 37° C. for 48 h. Cells were then transfected with 1-10 μM of CDN in a permeabilization buffer containing 10 μg/mL digitonin, 50 mM HEPES, pH 7, 100 mM KCl, 3 mM MgCl2, 85 mM sucrose, 1 mM ATP, 0.1 mM DTT, 0.2% BSA for 30 mins at 37° C., then incubated with regular growth medium for 2 h. Cells were lysed with NP-40 lysis buffer containing protease inhibitor cocktail (Roche), PhosSTOP (Roche) and PMSF, and total protein was collected and quantified by BCA assay. Protein extracts were resolved by SDS-PAGE with 7.5% gel and transferred to PVDF membrane. Proteins were detected with the following primary antibodies: rabbit anti-pIRF3 monoclonal antibody (Cell Signaling Technology), mouse anti-β actin monoclonal antibody (Sigma-Aldrich).

Nc1nc2c([C@@H]3O[C@@H]4COP(=O)(O)O[C@H]5[C@@H](O)[C@H](c6scc7c(=O)[nH]c(N)nc67)O[C@@H]5COP(=O)(O)O[C@H]4[C@H]3O)scc2c(=O)[nH]1 [c-di-^thGMP]
order of gradually reduced rocR hydrolysis rate [1]: c-di-GMP, c-di-^tzGMP, c-G^tzGMP, c-G^thGMP and lastly c-di-^thGMP | cleavage by rocR ([1]; after 40 min of incubation with rocR): No cleaved c-di-^thGMP was observed; also recorded: did not produce observable amounts of cleaved c-di-^thGMP products | IRF3 phosphorylation (pIRF3), concentration dependence [2]: did not trigger observable IRF3 activation at any of the concentrations tested

Nc1nc2c([C@@H]3O[C@@H]4COP(=O)(O)O[C@H]5[C@@H](O)[C@H](n6cnc7c(=O)[nH]c(N)nc76)O[C@@H]5COP(=O)(O)O[C@H]4[C@H]3O)scc2c(=O)[nH]1 [c-G^thGMP]
k2 [1]: 0.033 ± 0.001 s⁻¹ | k3 [1]: 5 ± 0.57 s⁻¹ | k1 [1]: 21000 ± 1000 M⁻¹ s⁻¹ | order of gradually reduced rocR hydrolysis rate [1]: c-di-GMP, c-di-^tzGMP, c-G^tzGMP, c-G^thGMP and lastly c-di-^thGMP | products of rocR-mediated cleavage ([1]; mixed CDNs, HPLC): a single product | IRF3 phosphorylation (pIRF3), concentration dependence [2]: no clear dose-response

Nc1nc2c([C@@H]3O[C@@H]4COP(=O)(O)O[C@H]5[C@@H](O)[C@H](c6snc7c(=O)[nH]c(N)nc67)O[C@@H]5COP(=O)(O)O[C@H]4[C@H]3O)snc2c(=O)[nH]1 [c-di-^tzGMP]
k2 (cleavage reaction) [1]: 0.83 ± 0.55 s⁻¹ | time to complete cleavage by rocR [1]: ≤ 20 min | k2 [1]: 0.099 ± 0.07 s⁻¹ | k3 [1]: 0.83 ± 0.55 s⁻¹ | k1 [1]: 43000 ± 20000 M⁻¹ s⁻¹ | order of gradually reduced rocR hydrolysis rate [1]: c-di-GMP, c-di-^tzGMP, c-G^tzGMP, c-G^thGMP and lastly c-di-^thGMP | IRF3 phosphorylation (pIRF3), concentration dependence [2]: Increasing amounts of phosphorylated IRF3

Nc1nc2c(ncn2[C@@H]2O[C@@H]3COP(=O)(O)O[C@H]4[C@@H](O)[C@H](n5cnc6c(=O)[nH]c(N)nc65)O[C@@H]4COP(=O)(O)O[C@H]3[C@H]2O)c(=O)[nH]1 [c-di-GMP, reference compound]
k2 (cleavage reaction) [1]: 0.76 ± 0.03 s⁻¹ | time to complete cleavage by rocR [1]: ~3 min | k2 [1]: 1.15 ± 0.21 s⁻¹ | k3 [1]: 0.76 ± 0.03 s⁻¹ | k1 [1]: 3.96e+06 ± 70000 M⁻¹ s⁻¹ | order of gradually reduced rocR hydrolysis rate [1]: c-di-GMP, c-di-^tzGMP, c-G^tzGMP, c-G^thGMP and lastly c-di-^thGMP | IRF3 phosphorylation (pIRF3) ([2]; RAW 264.7, 1 μM CDN): did not induce obvious IRF3 activation | IRF3 phosphorylation (pIRF3) ([2]; RAW 264.7, 5 and 10 μM CDN): comparable efficiency in inducing IRF3 phosphorylation
